Measured values from publication PMC7915588, “Polyphyllin D Shows Anticancer Effect through a Selective Inhibition of Src Homology Region 2-Containing Protein Tyrosine Phosphatase-2 (SHP2)” (Molecules, 2021).

Tests used:
[1] = biological target: T1, SHP2 (Homo sapiens, UniProt Q06124); assay: DiFMUP fluorogenic phosphatase assay, dose-response and Hill plot; format: biochemical
T1 construct: gene PTPN11
T1 sequence (Q06124 1-526): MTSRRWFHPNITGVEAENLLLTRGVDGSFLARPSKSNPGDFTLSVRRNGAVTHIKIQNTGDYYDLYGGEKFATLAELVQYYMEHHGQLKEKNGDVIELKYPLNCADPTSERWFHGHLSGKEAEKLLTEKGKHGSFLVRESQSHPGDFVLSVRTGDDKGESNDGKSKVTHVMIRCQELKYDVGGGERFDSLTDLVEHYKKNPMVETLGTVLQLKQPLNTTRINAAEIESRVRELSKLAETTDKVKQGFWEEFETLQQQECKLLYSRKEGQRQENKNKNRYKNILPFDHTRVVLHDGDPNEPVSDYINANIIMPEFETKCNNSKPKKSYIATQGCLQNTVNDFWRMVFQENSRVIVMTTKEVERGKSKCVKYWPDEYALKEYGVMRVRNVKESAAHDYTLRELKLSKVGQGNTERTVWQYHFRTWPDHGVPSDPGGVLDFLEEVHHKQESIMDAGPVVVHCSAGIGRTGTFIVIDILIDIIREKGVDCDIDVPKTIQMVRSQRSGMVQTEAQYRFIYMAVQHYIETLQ

[2] = biological target: T2, PTPN7 (HePTP) (Homo sapiens, UniProt P35236); assay: biochemical; design: Fluorogenic phosphatase assay, DiFMUP hydrolysis by recombinant PTPs, initial velocity, Ex/Em 355/460 nm; conditions: read-out: Inhibition by 20 µM polyphyllin D (%)
T2 construct: 1-360
T2 sequence (P35236 1-360): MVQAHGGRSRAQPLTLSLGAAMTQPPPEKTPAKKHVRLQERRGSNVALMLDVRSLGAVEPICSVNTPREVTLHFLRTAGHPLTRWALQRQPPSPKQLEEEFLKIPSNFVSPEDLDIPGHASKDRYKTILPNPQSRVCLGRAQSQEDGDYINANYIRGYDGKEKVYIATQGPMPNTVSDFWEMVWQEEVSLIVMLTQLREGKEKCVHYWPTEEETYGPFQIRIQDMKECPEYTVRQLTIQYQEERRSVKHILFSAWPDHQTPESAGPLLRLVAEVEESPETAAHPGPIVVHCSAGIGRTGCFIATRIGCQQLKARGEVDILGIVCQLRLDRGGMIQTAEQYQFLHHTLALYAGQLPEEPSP

C[C@@H]1CC[C@@]2(OC1)O[C@H]1C[C@H]3[C@@H]4CC=C5C[C@@H](O[C@@H]6O[C@H](CO)[C@@H](O[C@@H]7O[C@@H](CO)[C@H](O)[C@H]7O)[C@H](O)[C@H]6O[C@@H]6O[C@@H](C)[C@H](O)[C@@H](O)[C@H]6O)CC[C@]5(C)[C@H]4CC[C@]3(C)[C@H]1[C@@H]2C [polyphyllin D]
IC50 [1]: 15.3 µM | inhibition at 20 µM [2]: 9.2%
